Source: patent US20120059240A1, “METHOD FOR PREPARATION OF MICELLAR HYBRID NANOPARTICLES FOR THERAPEUTIC AND DIAGNOSTIC APPLICATIONS AND COMPOSITIONS THEREOF” (MASSACHUSETTS INSTITUTE OF TECHNOLOGY, priority 2008, published 2012)

System: MDA-MB-435 human carcinoma cells
Experiment: Intracellular drug delivery of DOX (fluorescence microscopy)
Format: cell-based
Conditions: after 30 min of incubation
Protocol: For in vitro studies, MDA-MB-435 human carcinoma cells were maintained in Dulbecco's Modified Eagle's Medium (DMEM) supplemented with 10% fetal bovine serum (FBS) and 100 μg/ml penicillin-streptomycin. For fluorescence microscopy, the cells (3000 cells per well) were seeded into 8-well chamber slides (Lab-Tek) overnight. The cells were then incubated with 50 μg of MHN or F3-MHN per well for 2 h (for intracellular targeting) and 50 μg of DOX-loaded F3-MHN (0.093 mg DOX per mg MHN) or 4.5 μg of free DOX (equivalent with DOX amount for DOX-loaded F3-MHN) physically mixed with 50 μg of F3-MHN per well for 30 min, 2 h, and 24 h (for intracellular drug delivery) at 37° C. in the presence of 10% FBS. For the intracellular targeting study, the cells were observed without any fixation using an inverted fluorescence microscope (Nikon, Tokyo, Japan). For the intracellular drug delivery study, the cells were fixed with 4% paraformaldehyde for 20 min, mounted in Vectashield Mounting Medium with 4′,6-diamidino-2-phenylindole (DAPI; Vector Laboratories, Burlingame, Calif.), and observed with a fluorescence microscope. […]

SMILES: COc1cccc2c1C(=O)c1c(O)c3c(c(O)c1C2=O)C[C@@](O)(C(=O)CO)C[C@@H]3O[C@H]1C[C@H](N)[C@H](O)[C@H](C)O1 [free DOX, doxorubicin]
- Location of DOX fluorescence signal in cells: almost all of the DOX fluorescence signal was observed in the cell nuclei
